The values below are quoted from earlier work in patent publication US20150141549A1, “ANTIBIOTIC PARTICLES AND PRODUCTION METHOD THEREOF” (Japan EnviroChemicals, Ltd., priority 2012, published 2015).

Take `CCCCNC(=O)OCC#CI` [IPBC, 3-iodo-2-propynylbutylcarbamate]: the water solubility is on record as 150 ppm.
